Patent US5460697A, “Method of pulping wood chips with a fungi using sulfite salt-treated wood chips” (priority 1994, dated 1995)
Entries after “also recorded” stand apart in the source; their conditions may differ.

What was measured:
C. subvermispora = experiment: Growth of C. subvermispora on sodium bisulfite-treated chips; type: cell-based; details: for growth of C. subvermispora at harvest (in words): fungus-treated chips with sodium bisulfite
Procedure: To prepare a liquid inoculum of C. subvermispora, potato dextrose broth (43.20 g) and yeast extract (13.08 g) were added to 1800 ml of distilled water and mixed well. 300 ml of this medium was poured into six 2800-ml flasks. Each flask was autoclaved for 20 min. at 121° C. After cooling to room temperature, each flask was inoculated with 30 plugs cut into 13-mm diameter plugs from a 10-day old fungal culture on a potato dextrose agar plate. The flasks were then incubated at 27° C. at 65% relative humidity for 10-15 days. Prior to use, the flasks containing the fungal biomass were decanted and washed with sterile distilled water to remove excess medium from the fungus. The fungal biomass was then placed in distilled water and blended in a Waring blender (VWR scientific) twice for 15 seconds each time at high speed, following which distilled water was added to the suspension to make the total volume 500 ml. About 100 grams of this suspension (2.61 g dry weight) was added to each bioreactor containing about 1600 grams of aspen chips measured on a dry weight basis prepared as described below. The blended mycelium was dumped onto the chips and mixed.
Three batches of aspen wood chips were prepared, each batch containing 1800 g dry weight of chips. One batch was soaked in 18 kg of water containing no sodium bisulfite. A second batch was soaked in 18 kg of water containing 28.125 g of sodium bisulfite. A third batch was soaked in 18 kg of water containing 56.250 g of sodium bisulfite. After the chips had soaked, we performed our experiments on 1600 g of chips (dry weight basis). The soaking was done at room temperature for about 1 hour. […] Based on the amount of water or sodium bisulfite solution absorbed by the chips, we calculated that 1600 g dry weight of chips retained about 600 or 1200 μg/ml of sodium bisulfite. […]
We repeated the experiment described above with a four-week incubation. […] Based on the amount of water or sodium bisulfite solution soaked, we calculated that each batch of 1600 g dry weight of chips retained about 1300 μg/ml of sodium bisulfite. […]

[1] = tested on: indigenous microorganisms; experiment: Effect of sulfite salts on indigenous microorganisms of unsterilized wood chips (plating); type: cell-based, indigenous microorganisms of unsterilized aspen wood chips
Procedure: Aspen wood chips (50 g O.D. basis) were soaked in 500 ml of water containing either 0 mg, 781 mg or 1562 mg sodium bisulfite for about 1 hour at room temperature. After soaking, water was drained from the chips.
During the 1 hour soaking the chips soaked up about 31 ml of water. Therefore, the final moisture content of wood was about 61% (wet weight basis) and the final concentration of each chemical on water basis was about 0 μg/ml, 600 μg/ml and 1200 μg/ml.
Three chips were pulled randomly from each flask and plated on potato dextrose agar and tryptic soy agar plates. These plates were incubated at 27° C. for 24 or 27 h and the contaminants were visually observed.
A panel of other sulfur-containing chemicals were analyzed for their ability to inhibit the growth of indigenous microorganisms on unsterilized wood chips in the manner described above. Table 2 describes the various concentrations of these chemicals and the percent inhibition relative to control plates observed.

[2] = Effluent toxicity (Microtox); details: for Toxicity Units (100/EC50): 1300 μg/ml BiS
Excerpt: Evaluating biopulp effluents is an important factor in assessing the feasibility of this new pulping process. […] Because the composition of biopulp effluent is unknown, we selected a general toxicity test method, Microtox, as an appropriate method for the evaluation. Microtox analysis has been used satisfactorily as a rapid screening method for evaluating toxicity of pulp mill effluents Firth, B. and Backman, C. Tappi J., 75[12]169; 1991.
For each run, approximately 1.5-1.6 kg wood chips (oven dry weight basis) of each treatment from 4-week incubation samples, were fiberized in an atmospheric refiner and the pulp slurry was collected in 20-gallon plastic containers. The flow rate during refining operation was approximately 50 kg 90° C. water per kg chips (oven dry weight basis). A representative 5-gallon sample was taken from each slurry and filtered on a Buchner funnel to separate pulp from effluent (filtrate). Filtrates were cooled to 4° C. and pH was recorded. Chilled effluent samples were submitted for Microtox testing at National Council for Air and Stream Improvement according to standard Microtox procedures.

O=S([O-])O.[Na+] [Sodium Bisulfite]
growth of C. subvermispora at harvest (in words) (C. subvermispora; 2 weeks): heavy growth of C. subvermispora
growth of C. subvermispora at harvest (in words) (C. subvermispora; 4 weeks): heavy growth of C. subvermispora
growth of white-rot fungi such as C. subvermispora (in words) (C. subvermispora; treatment of wood chips, summary): promoted the growth of white-rot fungi
Inhibition Relative to control ([1]; 600 μg/ml): 95%
Inhibition Relative to control ([1]; 1200 μg/ml): 100%
inhibition of contaminants (in words) ([1]; 1200 μg/ml, potato dextrose and tryptic soy agar plates): completely inhibited all contaminants; also recorded: no colonies on the plate
first test: whether the salt inhibits growth of indigenous microorganisms ([1]; pass / not pass): passed the first test
inhibition of growth of indigenous microorganisms (in words) ([1]; unsterilized wood chips, overall statement): successfully inhibited the growth of microorganisms; also recorded: inhibited all wood contaminants; also recorded: inhibited the growth of indigenous microorganisms
Toxicity Units (100/EC50) ([2]; Control 2: not A/C, no fungus): 15.4 Toxicity Units
Toxicity Units (100/EC50) ([2]; Control 4: A/C, no fungus): 16.1 Toxicity Units
Toxicity Units (100/EC50) ([2]; Treatment 2: not A/C, with fungus, 4-week incubation): 4.2 Toxicity Units
Toxicity Units (100/EC50) ([2]; Treatment 4: A/C, with fungus, 4-week incubation): 6.2 Toxicity Units
toxicity (in words) ([2]; at least 2-2.5 kg/ton of wood chips, unsterilized, vs control chips): less toxicity than from control chips
effluent toxicity (in words) ([2]; biopulp, treatment 2): least toxic effluent from biopulp
effluent toxicity (in words) ([2]; controls without fungus (control 2, control 4)): high effluent toxicity; also recorded: increased effluent toxicity of the non-autoclaved control chips
